Earlier results in patent publication US20110281902A1, “COMBINATIONS COMPRISING A PROTEIN KINASE INHIBITOR BEING A PYRIMIDYLAMINOBENZAMIDE COMPOUND AND A HSP90 INHIBITOR SUCH AS 17-AAG” (priority 2005, published 2011).

Assays:
[1] = clinical trials in hematological malignancies and solid tumors
[2] = makes it difficult to formulate/administer

- solubility [2]: poor solubility
Compound: C=CCNC1=C2C[C@@H](C)C[C@H](OC)[C@H](O)[C@@H](C)/C=C(\C)[C@H](OC(N)=O)[C@@H](OC)/C=C\C=C(/C)C(=O)NC(=CC1=O)C2=O [17-AAG, 17-allylamino-17-demethoxygeldanamycin]
- dose limiting toxicity [1]: hepatic
